Measured values: US6656921B1, “Use of zinc hyaluronate against peptic ulcer” (Richter Gedeon Vegyeszeti Gyar RT., priority 1997, dated 2003)
“And” between values parts separate entries of the source, which are not always exact repeats. Identical values can stand only once. Marks after values point to notes of the source that are not given here.

Assays:
[1] = tested on: acidified ethanol induced gastric lesion; test: Inhibition of acidified-ethanol induced gastric lesions; format: in vivo, rat; settings: for Inhibition / Lesion length/stomach mm ± S.E.M.: 30 min before acidified ethanol
Description: Female RG-Wistar rats weighing between 120-150 g were used. Before experiments animals were fasted for 24 hours but received water ad libitum.
Experiments were carried out according to the technique similar to that described by A. Robert [Gastroenterology 77, […] (1979)].
Acidified ethanol (mixture of 50 ml of abs. ethanol and 1 ml of concentrated HCI) was used as strong irritants. Dose of acidified ethanol was 0.5 ml/100 g body weight with intragastric administration. Test compounds were given orally 30 minutes before the acidified ethanol challenge. When the duration of action of test compound was studied test material was administered 60 or 120 minutes earlier to the irritating effect induced by acidified-ethanol effect. One hour after the acidified ethanol treatment rats were sacrificed by cervical dislocation. Stomachs were removed and opened along the greater curvature and mildly washed down. The longitudinal hemorrhagic lesions were assayed by length.
ED50 value was defined as the dose that gave a 50% decrease in ulcer index.

[2] = tested on: acetic acid induced chronic gastric ulcer; test: Inhibition of acetic acid induced chronic gastric ulcer; format: in vivo, rat; settings: for Ulcerated area mm^2 ± S.E.M.: day 5 to 14 after surgery
Description: Female, RG Wistar rats weighing between 120-150 g were used. Before the surgery animals were deprived of food for 24 hours but received water ad libitum. The chronic gastric ulcer was induced by the injection of 25 μl/animal of 20% (v/v) acetic acid into the gastric wall under light ether anaesthesia according to the method similar to that described by Takagi et al. (1969). The oral treatment with the test compounds was started five days after the surgery and continued in a once-a-day regimen up to the 14th day. The animals were killed on the 15th day and their stomachs were dissected. The severity of ulceration was evaluated by the measurement of the diameter of the ulcers and the area affected was calculated. The healing effect was expressed as differences in percentage between the control and test group values.

[3] = tested on: indomethacin induced gastric lesion; test: Inhibition of indomethacin induced gastric lesion; format: in vivo, rat; settings: for ED50 (dose protecting the stomach by 50% from indomethacin): p.o.
Description: 2. Inhibition of Indomethacin Induced Gastric Lesion Female RG Wistar rats weighing between 120-150 g were used. Before the experiments animals were fasted for 24 hours but received water ad libitum. Test compounds were given orally, 30 minutes later the animals were treated subcutaneously with indomethacin at a dose of 40 mg/kg. Four hours after the irritating indomethacin administration the animals were killed by cervical dislocation. The stomachs were removed, opened along the greater curvature and the hemorrhagic lesions were counted on the glandular stomach.
ED50 value represents the dose which protects the stomach by 50 % from the damaging effect of indomethacin.

[4] = tested on: indomethacin induced intestinal ulcer; test: Inhibition of indomethacin induced intestinal ulcer (tensile strength); format: in vivo, rat; settings: for Effect against indomethacin induced intestinal ulceration (in words): rat, in vivo; for Tensile strength of intestinal wall as index of ulceration Hgmm ± S.E.M.: indomethacin 15 mg/kg p.o.
Description: Female, RG-Wistar, non-fasted rats weighing between 120-150 g were used. The intestinal ulcer was induced by oral administration of 15 mg/kg indomethacin. Test compound was given to animals orally 3 times over 48 hours in 24 hour equal intervals. The first introduction of test compound preceded the single indomethacin treatment by 60 minutes. Animals were killed 72 hours after the first administration of the test compound. Control animals received vehicle instead of test compound and normal rats mean non-fasted, non-treated rats. The small intestine segment from pylorus to cecum was removed, placed into 0.9% (w/v) sodium chloride solution at 37° C. and it was connected with a BP recorder through one of its ends via a polyethylene cannula. After ligating both ends of the prepartum the pressure was increased inside the intestine until air bubbles appeared at the weakened site of the intestinal wall. This pressure is expressed in Hgmm and is denoted tensile strength (TS).

Helicobacter pylori = test: Activity against Helicobacter pylori (agar MIC); format: cell-based
Description: These experiments were performed on Helicobacter pylori strains cultivated from the gastric biopsy samples of patients suffering from various ulcers. An 1% by (w/w) solutions of De-Nol (colloidal bismuth subcitrate) was used as reference substance. An agar medium supplemented with 10% of bovine blood was employed. Plates containing no substance to be tested were used as controls. The plates inoculated were incubated at 37° C. in a gas atmosphere containing 5% of oxygen and 7-8% of carbon dioxide for 3-5 days. Minimum inhibitory concentration (MIC) value was considered to be the lowest concentration of substances totally inhibiting the growth (propagation) of well-propagating bacteria on control plates.

[5] = tested on: gastrointestinal motility; test: Gastrointestinal motility in the charcoal propulsion test; format: in vivo, rat; settings: 100 mg/kg p.o.
Description: Experiments were performed on female, RG-Wistar rats weighing 120-140 g, which were fasted for 24 hours but received water ad libitum.
The experimental procedure was carried out according to the technique similar to that described of P. A. Janssen and A. J. Jageneau [J. Pharm. Pharmacel. 9, 381 (1957)].
Test compounds were given orally at a dose of 100 mg/kg. Control animals received physiological saline solution instead of test compounds. 30 minutes later, the 5% (w/v) charcoal suspension was administered orally at a volume of 0.5 ml/animal. 60 minutes after the charcoal treatment the animals were sacrificed by cervical dislocation. The intestine from pylorus to cecum was removed, its lengths measured along with the distance traversed by the charcoal meal.
Motility was expressed as the ratio of length of charcoal suspension to the length of the whole intestine.

[6] = 40 mg/kg p.o., 30 min before indomethacin
[7] = 80 mg/kg p.o., 30 min before indomethacin
[8] = 160 mg/kg p.o., 30 min before indomethacin

sucralfate [reference compound]
Inhibition ([1]; 50 mg/kg p.o.): 0% | Lesion length/stomach mm ± S.E.M. ([1]; 50 mg/kg p.o.): 64.0 ± 25.9 mm | Inhibition ([1]; 100 mg/kg p.o.): 75.3% | Lesion length/stomach mm ± S.E.M. ([1]; 100 mg/kg p.o.): 15.0 ± 5.5 mm | Inhibition ([1]; 400 mg/kg p.o.): 87.7% | Lesion length/stomach mm ± S.E.M. ([1]; 400 mg/kg p.o.): 7.5 ± 3.0 mm | Ulcerated area mm^2 ± s.e.m. ([2]; 100 mg/kg p.o. once a day): 6.7 ± 1.5 mm^2 | Ulcerated area mm^2 ± s.e.m. ([2]; 500 mg/kg p.o. once a day): 4.3 ± 1.3* mm^2 | Effect on healing % ([2]; 500 mg/kg p.o. once a day, ↓healing slowed down, ↑healing accelerated): 53% | Inhibition [3, 6]: 14.8% | Lesion number/stomach ± S.E.M. [3, 6]: 14.4 ± 4.8 | Inhibition [3, 7]: 62.1% | Lesion number/stomach ± S.E.M. [3, 7]: 6.4 ± 2.2 | Inhibition [3, 8]: 82.8% | Lesion number/stomach ± S.E.M. [3, 8]: 2.9 ± 1.4 | ED50 (dose protecting the stomach by 50% from indomethacin) [3]: 74.9 mg/kg | Effect against indomethacin induced intestinal ulceration (in words) [4]: totally ineffective

zinc hyaluronate
In vitro activity against Helicobacter pylori (in words) (Helicobacter pylori): commensurable with activity of De-Nol | MIC (Helicobacter pylori; strain 822/96, agar medium with 10% bovine blood, 37° C., 3-5 days): 500 mg/L

zinc hyaluronate [Zinc hyaluronate (II)]
Inhibition ([1]; 10 mg/kg p.o.): 42.7% | Lesion length/stomach mm ± S.E.M. ([1]; 10 mg/kg p.o.): 48.0 ± 10.9 mm | Inhibition ([1]; 25 mg/kg p.o.): 77.3% | Lesion length/stomach mm ± S.E.M. ([1]; 25 mg/kg p.o.): 19.0 ± 4.4 mm | Inhibition ([1]; 50 mg/kg p.o.): 84.1% | Lesion length/stomach mm ± S.E.M. ([1]; 50 mg/kg p.o.): 13.3 ± 4.8 mm | Inhibition ([1]; 100 mg/kg p.o.): 98.1% | Lesion length/stomach mm ± S.E.M. ([1]; 100 mg/kg p.o.): 1.6 ± 0.5 mm | ED50 (dose giving 50% decrease in ulcer index) ([1]; p.o., 30 min pretreatment): 11.1 mg/kg | Ulcerated area mm^2 ± S.E.M. ([2]; 0.01 mg/kg p.o. once a day): 6.2 ± 1.0 mm^2 | Ulcerated area mm^2 ± S.E.M. ([2]; 0.1 mg/kg p.o. once a day): 5.8 ± 1.1 mm^2 | Ulcerated area mm^2 ± S.E.M. ([2]; 1.0 mg/kg p.o. once a day): 3.7 ± 1.6* mm^2 and 3.7 ± 0.6* mm^2 | Effect on healing of acetic acid induced chronic ulcer (in words) ([2]; rat, in vivo): accelerated the healing | Inhibition ([3]; 1.0 mg/kg p.o., 30 min before indomethacin): 31.8% | Lesion number/stomach ± S.E.M. ([3]; 1.0 mg/kg p.o., 30 min before indomethacin 40 mg/kg s.c.): 8.8 ± 2.1 | Inhibition ([3]; 10.0 mg/kg p.o., 30 min before indomethacin): 56.5% | Lesion number/stomach ± S.E.M. ([3]; 10.0 mg/kg p.o., 30 min before indomethacin 40 mg/kg s.c.): 7.4 ± 1.9 | Inhibition ([3]; 100 mg/kg p.o., 30 min before indomethacin): 78.2% | Lesion number/stomach ± S.E.M. ([3]; 100 mg/kg p.o., 30 min before indomethacin 40 mg/kg s.c.): 3.7 ± 0.8 | ED50 (dose protecting the stomach by 50% from indomethacin) [3]: 5.8 mg/kg | Effect on the intestinal motility (in words) [5]: absence of change in activity | Propulsion of charcoal suspension mm ± S.E.M. ([5]; 30 min before charcoal, 60 min after charcoal, listed as Zink-hyaluronate (II)): 610 ± 3.9 mm | Ratio of charcoal suspension to the whole intestinal part ([5]; listed as Zink-hyaluronate (II)): 0.77 ± 0.04 | Tensile strength of intestinal wall as index of ulceration Hgmm ± S.E.M. ([4]; 3 × 1 mg/kg p.o.): 27.9 ± 8.9 Hgmm | Tensile strength of intestinal wall as index of ulceration Hgmm ± S.E.M. ([4]; 3 × 10 mg/kg p.o.): 41.3 ± 10.9 Hgmm | Tensile strength of intestinal wall as index of ulceration Hgmm ± S.E.M. ([4]; 3 × 100 mg/kg p.o.): 48.8 ± 11.3 Hgmm | Increase of tensile strength of intestinal wall compared to the control group ([4]; doses of 10 mg/kg and 100 mg/kg): almost three times | Effect against indomethacin induced intestinal ulceration (in words) [4]: had a protective effect on the intestinal wall
